Data as given in the NIST ThermoML archive (doi:10.1016/j.jct.2012.11.005).
Numbers after ± are expanded uncertainties.

Key:
[1] = 101.33 kPa, Liquid, Vibrating tube method
[2] = refractive index (Na D-line) (dimensionless); settings: 293.15 K; 101.33 kPa; Liquid; Standard Abbe refractometry
[3] = Boiling temperature at pressure P; settings: Liquid, Closed cell (Static) method

CCCCO [butan-1-ol]
Settings | mass density [kg/m3]
[1], 298.15 K | 805.851 ± 0.16

Settings | refractive index
[2] | 1.39705 ± 0.0007

C1CCCCC1 [cyclohexane]
Settings | mass density [kg/m3]
[1], 293.15 K | 778.414 ± 0.61

Settings | refractive index
[2] | 1.42655 ± 0.0008

CC(C)OC(C)C [diisopropyl ether]
Settings | mass density [kg/m3]
[1], 298.15 K | 718.511 ± 0.25

Settings | refractive index
[2] | 1.36547 ± 0.00072

CCO [ethanol]
Settings | Boiling temperature at pressure P [°C] | mass density [kg/m3]
[1], 298.15 K | – | 784.89 ± 0.16
[3], 17.99 kPa | 40.00 ± 0.51 | –
[3], 20 kPa | 42.23 ± 0.51 | –
[3], 29.6 kPa | 50.00 ± 0.45 | –
[3], 40 kPa | 56.49 ± 0.43 | –
[3], 47.01 kPa | 60.00 ± 0.43 | –
[3], 49.99 kPa | 61.37 ± 0.42 | –
[3], 59.93 kPa | 65.51 ± 0.42 | –
[3], 69.95 kPa | 69.13 ± 0.41 | –
[3], 79.91 kPa | 72.33 ± 0.41 | –
[3], 89.92 kPa | 75.16 ± 0.41 | –
[3], 100.07 kPa | 77.90 ± 0.41 | –

Settings | refractive index
[2] | 1.35929 ± 0.0007

CO [methanol]
Settings | Boiling temperature at pressure P [°C] | mass density [kg/m3]
[1], 298.15 K | – | 786.624 ± 0.16
[3], 19.97 kPa | 28.22 ± 0.48 | –
[3], 24.04 kPa | 32.00 ± 0.46 | –
[3], 29.98 kPa | 36.41 ± 0.44 | –
[3], 39.04 kPa | 42.00 ± 0.43 | –
[3], 50.01 kPa | 47.57 ± 0.42 | –
[3], 60.94 kPa | 52.00 ± 0.42 | –
[3], 69.96 kPa | 55.42 ± 0.41 | –
[3], 79.92 kPa | 58.59 ± 0.41 | –
[3], 89.99 kPa | 61.58 ± 0.41 | –
[3], 100 kPa | 64.18 ± 0.41 | –

Settings | refractive index
[2] | 1.32643 ± 0.0007
